Laboratory results taken from ChEMBL document CHEMBL3997765 (Medchemcomm, 2016).

Key:
[1] = molecular target: RAC-alpha serine/threonine-protein kinase (Homo sapiens) (UniProt P31749); experiment: Inhibition of full length recombinant human His-tagged PKBalpha expressed in baculovirus expression system at 10 uM by Z'-LYTE assay relative to control
[2] = molecular target: Fibroblast growth factor receptor 1 (Homo sapiens) (UniProt P11362); experiment: Inhibition of recombinant human His-tagged FGFR1 cytoplasmic domain (308 to 731 residues) expressed in baculovirus expression system at 10 uM by Z'-LYTE assay relative to control
[3] = molecular target: Serine/threonine-protein kinase Chk1 (Homo sapiens) (UniProt O14757); experiment: Inhibition of full length recombinant human His-tagged CHK1 expressed in baculovirus expression system at 10 uM by Z'-LYTE assay relative to control
[4] = molecular target: Mitogen-activated protein kinase kinase kinase kinase 4 (Homo sapiens) (UniProt O95819); experiment: Inhibition of recombinant human GST-tagged HGK catalytic domain (1 to 328 residues) expressed in baculovirus expression system at 10 uM by Z'-LYTE assay relative to control
[5] = molecular target: Receptor tyrosine-protein kinase erbB-2 (Homo sapiens) (UniProt P04626); experiment: Inhibition of recombinant human His-tagged HER2 cytoplasmic domain (676 to 1255 residues) expressed in baculovirus expression system at 10 uM by Z'-LYTE assay relative to control
[6] = molecular target: Rho-associated protein kinase 1 (Homo sapiens) (UniProt Q13464); experiment: Inhibition of recombinant human GST-tagged ROCK1 catalytic domain (1 to 535 residues) expressed in baculovirus expression system at 10 uM relative to control
[7] = molecular target: Proto-oncogene tyrosine-protein kinase receptor Ret (Homo sapiens) (UniProt P07949); experiment: Inhibition of recombinant human GST-tagged RET cytoplasmic domain (658 to 1114 residues) expressed in baculovirus expression system at 10 uM relative to control
[8] = molecular target: Insulin receptor (Homo sapiens) (UniProt P06213); experiment: Inhibition of recombinant human GST-tagged INSR cytoplasmic domain (1011 to 1382 residues) expressed in baculovirus expression system at 10 uM by Z'-LYTE assay relative to control
[9] = molecular target: Epidermal growth factor receptor (Homo sapiens) (UniProt P00533); experiment: Inhibition of recombinant human GST-tagged EGFR cytoplasmic domain (668 to 1210 residues) expressed in baculovirus expression system at 10 uM by Z'-LYTE assay relative to control
[10] = molecular target: Mitogen-activated protein kinase 3 (Homo sapiens) (UniProt P27361); experiment: Inhibition of full length recombinant human GST-tagged ERK1 expressed in Escherichia coli at 10 uM by Z'-LYTE assay relative to control
[11] = molecular target: Vascular endothelial growth factor receptor 2 (Homo sapiens) (UniProt P35968); experiment: Inhibition of recombinant human His-tagged KDR cytoplasmic domain (789 to 1356 residues) expressed in baculovirus expression system at 10 uM by Z'-LYTE assay relative to control
[12] = molecular target: Dual specificity mitogen-activated protein kinase kinase 1 (Homo sapiens) (UniProt Q02750); experiment: Inhibition of full length recombinant human His-tagged MEK1 expressed in baculovirus expression system at 10 uM by Z'-LYTE assay relative to control
[13] = molecular target: Hepatocyte growth factor receptor (Homo sapiens) (UniProt P08581); experiment: Inhibition of recombinant human His-tagged MET cytoplasmic domain (956 to 1390 residues) expressed in baculovirus expression system at 10 uM by Z'-LYTE assay relative to control
[14] = molecular target: Ribosomal protein S6 kinase beta-1 (Homo sapiens) (UniProt P23443); experiment: Inhibition of recombinant human GST-tagged p70S6K catalytic domain (1 to 421 residues) expressed in baculovirus expression system at 10 uM relative to control
[15] = molecular target: T1, Mitogen-activated protein kinase 14 (Homo sapiens, UniProt Q16539); experiment: Inhibition of full length recombinant human GST-tagged p38alpha expressed in Escherichia coli at 10 uM by Z'-LYTE assay relative to control
[16] = molecular target: High affinity nerve growth factor receptor (Homo sapiens) (UniProt P04629); experiment: Inhibition of recombinant human His-tagged TRKA cytoplasmic domain (441 to 796 residues) expressed in baculovirus expression system at 10 uM by Z'-LYTE assay relative to control
[17] = molecular target: Dual specificity tyrosine-phosphorylation-regulated kinase 3 (Homo sapiens) (UniProt O43781); experiment: Inhibition of full length recombinant human GST-tagged DYRK3 expressed in baculovirus expression system at 10 uM by Z'-LYTE assay relative to control
[18] = molecular target: T1, Mitogen-activated protein kinase 14; experiment: Inhibition of full length recombinant human GST-tagged p38alpha expressed in Escherichia coli at 10 uM using Ser/Thr04 peptide as substrate in presence of inactive MAPKAPK2 after 1 hr by FRET assay relative to control
[19] = molecular target: Insulin-like growth factor 1 receptor (Homo sapiens) (UniProt P08069); experiment: Inhibition of recombinant human C-terminal His-tagged IGF1R cytoplasmic domain (960 to 1397 residues) expressed in baculovirus expression system at 10 uM by Z'-LYTE assay relative to control
[20] = molecular target: Casein kinase I isoform gamma-2 (Homo sapiens) (UniProt P78368); experiment: Inhibition of full length recombinant human His-tagged CK1gamma2 expressed in baculovirus expression system at 10 uM by Z'-LYTE assay relative to control
[21] = molecular target: Proto-oncogene tyrosine-protein kinase Src (Homo sapiens) (UniProt P12931); experiment: Inhibition of recombinant human C-terminal His-tagged SRC cytoplasmic domain expressed in baculovirus expression system at 10 uM by Z'-LYTE assay relative to control
[22] = molecular target: Tyrosine-protein kinase BTK (Homo sapiens) (UniProt Q06187); experiment: Inhibition of recombinant human His-tagged BTK cytoplasmic domain expressed in baculovirus expression system at 10 uM by Z'-LYTE assay relative to control
[23] = molecular target: Tyrosine-protein kinase SYK (Homo sapiens) (UniProt P43405); experiment: Inhibition of recombinant human N-terminal GST-tagged SYK cytoplasmic domain expressed in baculovirus expression system at 10 uM by Z'-LYTE assay relative to control
[24] = molecular target: Casein kinase II subunit alpha (Homo sapiens) (UniProt P68400); experiment: Inhibition of full length recombinant human His-tagged CK2alpha1 expressed in baculovirus expression system at 10 uM by Z'-LYTE assay relative to control
[25] = molecular target: Phosphorylase b kinase gamma catalytic chain, liver/testis isoform (Homo sapiens) (UniProt P15735); experiment: Inhibition of full length recombinant human GST-tagged PHKG2 expressed in baculovirus expression system at 10 uM relative to control
[26] = molecular target: Glycogen synthase kinase-3 beta (Homo sapiens) (UniProt P49841); experiment: Inhibition of full length recombinant human His-tagged GSK3beta expressed in baculovirus expression system at 10 uM by Z'-LYTE assay relative to control
[27] = molecular target: Tyrosine-protein kinase Lck (Homo sapiens) (UniProt P06239); experiment: Inhibition of recombinant human C-terminal His-tagged LCK cytoplasmic domain expressed in baculovirus expression system at 10 uM by Z'-LYTE assay relative to control

T1 sequence (Q16539 whole entry, the tested form may be a part): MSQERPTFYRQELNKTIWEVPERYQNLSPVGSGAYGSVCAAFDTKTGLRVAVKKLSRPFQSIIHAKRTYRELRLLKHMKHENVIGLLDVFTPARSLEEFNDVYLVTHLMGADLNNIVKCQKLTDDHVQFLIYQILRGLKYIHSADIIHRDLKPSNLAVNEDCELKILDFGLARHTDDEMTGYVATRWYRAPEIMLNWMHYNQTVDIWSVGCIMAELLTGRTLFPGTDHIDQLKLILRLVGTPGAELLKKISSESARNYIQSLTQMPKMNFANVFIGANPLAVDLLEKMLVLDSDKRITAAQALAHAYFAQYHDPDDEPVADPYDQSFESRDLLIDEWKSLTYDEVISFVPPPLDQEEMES
Sequence of Mitogen-activated protein kinase 3 (Homo sapiens) (P27361 whole entry, the tested form may be a part): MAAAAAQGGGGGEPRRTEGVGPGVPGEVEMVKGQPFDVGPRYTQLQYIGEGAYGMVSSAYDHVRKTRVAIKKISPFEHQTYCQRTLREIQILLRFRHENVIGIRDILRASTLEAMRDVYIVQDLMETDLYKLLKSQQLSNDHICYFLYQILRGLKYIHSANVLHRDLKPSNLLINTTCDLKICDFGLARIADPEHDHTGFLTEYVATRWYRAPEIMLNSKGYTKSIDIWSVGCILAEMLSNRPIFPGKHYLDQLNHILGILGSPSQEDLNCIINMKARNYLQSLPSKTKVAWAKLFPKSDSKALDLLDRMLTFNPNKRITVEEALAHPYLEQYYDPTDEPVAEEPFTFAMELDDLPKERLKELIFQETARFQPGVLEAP
Sequence of Insulin-like growth factor 1 receptor (Homo sapiens) (P08069 31-736 limits assumed): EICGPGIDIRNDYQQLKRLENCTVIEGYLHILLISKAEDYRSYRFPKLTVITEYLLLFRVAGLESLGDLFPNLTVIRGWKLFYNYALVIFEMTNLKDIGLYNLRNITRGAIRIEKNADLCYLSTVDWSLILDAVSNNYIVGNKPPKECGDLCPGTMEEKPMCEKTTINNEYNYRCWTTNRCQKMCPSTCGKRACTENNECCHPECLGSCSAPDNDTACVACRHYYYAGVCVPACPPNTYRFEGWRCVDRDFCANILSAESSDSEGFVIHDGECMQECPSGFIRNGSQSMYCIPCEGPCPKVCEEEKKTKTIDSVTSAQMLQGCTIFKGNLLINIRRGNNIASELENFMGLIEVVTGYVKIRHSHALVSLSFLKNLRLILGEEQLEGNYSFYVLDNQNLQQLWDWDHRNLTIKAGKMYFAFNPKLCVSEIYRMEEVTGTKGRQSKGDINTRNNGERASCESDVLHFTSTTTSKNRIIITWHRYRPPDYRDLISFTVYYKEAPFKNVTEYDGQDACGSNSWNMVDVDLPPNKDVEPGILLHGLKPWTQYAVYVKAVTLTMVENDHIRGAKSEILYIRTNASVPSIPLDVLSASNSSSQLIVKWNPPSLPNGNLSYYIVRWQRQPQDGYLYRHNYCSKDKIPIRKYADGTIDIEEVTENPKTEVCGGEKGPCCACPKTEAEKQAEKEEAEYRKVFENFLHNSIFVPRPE
Sequence of Insulin-like growth factor 1 receptor (Homo sapiens) (P08069 741-1367 limits assumed): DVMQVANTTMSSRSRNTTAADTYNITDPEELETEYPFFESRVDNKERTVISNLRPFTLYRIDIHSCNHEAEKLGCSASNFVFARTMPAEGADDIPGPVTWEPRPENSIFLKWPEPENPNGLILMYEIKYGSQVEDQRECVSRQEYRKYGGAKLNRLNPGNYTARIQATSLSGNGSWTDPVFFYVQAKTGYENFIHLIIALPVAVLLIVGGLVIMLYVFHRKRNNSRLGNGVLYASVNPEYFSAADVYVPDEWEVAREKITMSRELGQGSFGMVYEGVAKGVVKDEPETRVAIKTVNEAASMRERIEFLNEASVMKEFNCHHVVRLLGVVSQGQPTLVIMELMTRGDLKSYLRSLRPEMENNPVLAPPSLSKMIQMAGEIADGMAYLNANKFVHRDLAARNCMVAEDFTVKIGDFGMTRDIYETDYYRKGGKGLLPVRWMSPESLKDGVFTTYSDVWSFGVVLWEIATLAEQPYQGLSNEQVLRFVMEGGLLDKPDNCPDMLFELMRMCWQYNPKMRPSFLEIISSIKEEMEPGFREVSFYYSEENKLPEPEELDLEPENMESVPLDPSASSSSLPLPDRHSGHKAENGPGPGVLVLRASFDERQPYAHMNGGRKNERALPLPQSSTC
Sequence of Rho-associated protein kinase 1 (Homo sapiens) (Q13464 2-1354 limits assumed): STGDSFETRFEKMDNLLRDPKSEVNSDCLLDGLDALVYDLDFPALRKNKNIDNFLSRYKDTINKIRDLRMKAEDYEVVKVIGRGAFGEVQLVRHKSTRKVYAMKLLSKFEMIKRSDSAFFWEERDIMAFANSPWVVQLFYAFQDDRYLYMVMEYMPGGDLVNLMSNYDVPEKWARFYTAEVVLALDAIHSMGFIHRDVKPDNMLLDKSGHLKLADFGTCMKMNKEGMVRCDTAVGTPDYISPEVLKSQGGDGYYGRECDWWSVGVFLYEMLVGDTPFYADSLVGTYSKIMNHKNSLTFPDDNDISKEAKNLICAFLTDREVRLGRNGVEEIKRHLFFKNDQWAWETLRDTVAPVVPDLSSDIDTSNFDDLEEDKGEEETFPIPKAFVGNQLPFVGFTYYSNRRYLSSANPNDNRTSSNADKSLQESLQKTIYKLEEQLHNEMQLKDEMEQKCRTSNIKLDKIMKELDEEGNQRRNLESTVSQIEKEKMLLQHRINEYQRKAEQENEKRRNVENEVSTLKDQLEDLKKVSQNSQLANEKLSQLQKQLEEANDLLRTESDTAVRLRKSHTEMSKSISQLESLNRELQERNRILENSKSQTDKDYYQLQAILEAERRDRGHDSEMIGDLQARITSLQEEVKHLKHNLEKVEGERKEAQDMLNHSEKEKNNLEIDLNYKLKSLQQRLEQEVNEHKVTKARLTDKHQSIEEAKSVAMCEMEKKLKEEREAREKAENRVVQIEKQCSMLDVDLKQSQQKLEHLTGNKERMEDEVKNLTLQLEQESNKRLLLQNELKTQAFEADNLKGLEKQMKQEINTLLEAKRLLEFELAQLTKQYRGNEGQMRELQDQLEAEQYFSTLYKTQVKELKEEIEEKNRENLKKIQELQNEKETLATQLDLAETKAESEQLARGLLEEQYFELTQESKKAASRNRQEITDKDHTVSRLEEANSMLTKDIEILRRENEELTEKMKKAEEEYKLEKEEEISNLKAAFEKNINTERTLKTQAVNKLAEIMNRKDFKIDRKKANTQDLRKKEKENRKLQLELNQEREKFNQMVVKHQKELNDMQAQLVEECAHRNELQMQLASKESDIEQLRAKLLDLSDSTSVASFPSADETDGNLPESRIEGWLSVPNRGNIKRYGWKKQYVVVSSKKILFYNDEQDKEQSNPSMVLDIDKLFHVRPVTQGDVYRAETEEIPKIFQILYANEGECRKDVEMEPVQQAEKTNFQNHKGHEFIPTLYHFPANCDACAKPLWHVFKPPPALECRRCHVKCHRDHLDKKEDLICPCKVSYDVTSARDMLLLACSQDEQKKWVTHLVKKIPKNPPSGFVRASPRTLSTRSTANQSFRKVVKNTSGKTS
Sequence of Dual specificity mitogen-activated protein kinase kinase 1 (Homo sapiens) (Q02750 whole entry, the tested form may be a part): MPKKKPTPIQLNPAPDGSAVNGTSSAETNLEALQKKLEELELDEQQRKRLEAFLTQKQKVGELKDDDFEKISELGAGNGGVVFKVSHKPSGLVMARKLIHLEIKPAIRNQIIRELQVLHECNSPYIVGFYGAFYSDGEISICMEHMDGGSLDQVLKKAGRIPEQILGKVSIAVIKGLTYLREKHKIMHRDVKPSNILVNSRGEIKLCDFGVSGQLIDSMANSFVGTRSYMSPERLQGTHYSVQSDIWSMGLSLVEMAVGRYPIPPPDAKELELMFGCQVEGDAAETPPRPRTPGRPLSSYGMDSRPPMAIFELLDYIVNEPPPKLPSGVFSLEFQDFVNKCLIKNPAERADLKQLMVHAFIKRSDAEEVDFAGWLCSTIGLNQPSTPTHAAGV
Sequence of High affinity nerve growth factor receptor (Homo sapiens) (P04629 33-796 limits assumed): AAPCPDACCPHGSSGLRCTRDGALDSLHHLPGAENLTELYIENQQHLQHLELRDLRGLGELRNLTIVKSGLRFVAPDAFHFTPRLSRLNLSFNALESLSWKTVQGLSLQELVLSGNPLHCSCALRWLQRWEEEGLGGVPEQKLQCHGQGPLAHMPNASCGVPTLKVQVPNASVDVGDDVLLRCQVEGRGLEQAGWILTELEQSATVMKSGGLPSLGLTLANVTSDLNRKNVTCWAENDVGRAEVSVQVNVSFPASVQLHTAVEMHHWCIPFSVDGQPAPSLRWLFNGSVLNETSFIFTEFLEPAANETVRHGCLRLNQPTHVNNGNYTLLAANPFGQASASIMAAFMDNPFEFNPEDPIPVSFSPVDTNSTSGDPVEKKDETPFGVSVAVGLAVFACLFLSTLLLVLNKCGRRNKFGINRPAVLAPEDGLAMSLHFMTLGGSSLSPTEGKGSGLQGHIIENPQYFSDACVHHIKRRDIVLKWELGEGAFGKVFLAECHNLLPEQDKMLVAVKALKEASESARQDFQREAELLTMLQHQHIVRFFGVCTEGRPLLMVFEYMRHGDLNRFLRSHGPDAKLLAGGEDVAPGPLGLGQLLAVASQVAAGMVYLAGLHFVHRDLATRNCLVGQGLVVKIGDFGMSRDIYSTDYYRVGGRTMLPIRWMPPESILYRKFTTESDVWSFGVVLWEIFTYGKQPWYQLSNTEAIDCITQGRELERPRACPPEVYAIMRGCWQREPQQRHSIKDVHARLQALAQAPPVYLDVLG
Sequence of Glycogen synthase kinase-3 beta (Homo sapiens) (P49841 whole entry, looked up, the tested form may be a part): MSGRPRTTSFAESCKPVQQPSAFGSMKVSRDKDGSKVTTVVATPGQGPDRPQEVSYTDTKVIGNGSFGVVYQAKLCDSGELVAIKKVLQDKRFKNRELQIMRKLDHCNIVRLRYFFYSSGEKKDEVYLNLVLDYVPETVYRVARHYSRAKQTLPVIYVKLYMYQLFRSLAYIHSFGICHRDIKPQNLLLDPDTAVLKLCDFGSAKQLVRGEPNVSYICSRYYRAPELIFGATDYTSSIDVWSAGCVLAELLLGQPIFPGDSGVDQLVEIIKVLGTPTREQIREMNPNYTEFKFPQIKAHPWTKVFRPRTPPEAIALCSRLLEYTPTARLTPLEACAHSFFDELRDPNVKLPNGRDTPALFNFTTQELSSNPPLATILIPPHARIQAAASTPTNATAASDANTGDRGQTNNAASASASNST

Compound: CC1=Nc2c(Sc3ccccc3)ncnc2Sc2ccccc21
- inhibition [1]: 5%
- inhibition [2]: -4%
- inhibition [3]: 3%
- inhibition [4]: 15%
- inhibition [5]: -4%
- inhibition [6]: 2%
- inhibition [7]: 7%
- inhibition [8]: 2%
- inhibition [9]: 1%
- inhibition [10]: 5%
- inhibition [11]: 12%
- inhibition [12]: 2%
- inhibition [13]: 14%
- inhibition [14]: 1%
- inhibition [15]: 74%
- inhibition [16]: 2%
- inhibition [17]: 8%
- inhibition [18]: 37%
- inhibition [19]: 2%
- inhibition [20]: 6%
- inhibition [21]: 3%
- inhibition [22]: 3%
- inhibition [23]: -3%
- inhibition [24]: 3%
- inhibition [25]: 2%
- inhibition [26]: 7%
- inhibition [27]: 10%
